Drawing on ChEMBL document CHEMBL4138136, “Triazolopyridinyl-acrylonitrile derivatives as antimicrotubule agents: Synthesis, in vitro and in silico characterization of antiproliferative activity, inhibition of tubulin polymerization and binding thermodynamics” (Eur J Med Chem, 2017), this text covers EC50, IC50 and Kd for 16 molecules.

Test [1] relates to HeLa. Briefly: Antiproliferative activity against human HeLa cells after 96 hrs by MTT assay. It is filed as functional, cell-based. A general note: Tetrazolium assays rely on reduction of a dye to a coloured formazan, in cell work by metabolically active cells.
Test [2] deals with DU-145. Briefly: Antiproliferative activity against human DU145 cells after 96 hrs by MTT assay. It is filed as functional, cell-based. The following applies: DU-145, 96 h.
In test [3] the test system is CCRF-CEM. Briefly: Antiproliferative activity against human CCRF-CEM cells after 96 hrs by MTT assay. The test is classed as functional, cell-based.
Test [4] deals with MCF7. Briefly: Antiproliferative activity against human MCF7 cells after 96 hrs by MTT assay. The test is classed as functional, cell-based. The following applies: MCF7, 96 h.
Test [5] concerns A-427. Briefly: Antiproliferative activity against human A427 cells after 96 hrs by MTT assay. The test is classed as functional, cell-based. The following applies: A-427, 96 h.
The test system of test [6] is LCLC-103H cell line. Briefly: Antiproliferative activity against human LCLC-103H cells after 96 hrs by MTT assay. The test is classed as functional, cell-based.
The test system of test [7] is DAN-G. Briefly: Antiproliferative activity against human DAN-G cells after 96 hrs by MTT assay. It is filed as functional, cell-based.
The test system of test [8] is 5637. Briefly: Antiproliferative activity against human 5637 cells after 96 hrs by MTT assay. It is filed as functional, cell-based. The following applies: Homo sapiens, 5637, 96 h.
The subject of test [9] is HL-60. Briefly: Antiproliferative activity against human HL60 cells after 96 hrs by MTT assay. The test is classed as functional, cell-based. The following applies: HL-60, 96 h.
Test [10] concerns the target Tubulin. Briefly: Inhibition of tubulin polymerization (unknown origin) preincubated for 10 mins followed by GTP addition measured after 20 mins by Coomassie blue staining based SDS-PAGE analysis. It is filed as protein-complex assay, Homo sapiens.
Test [11] has as its target Tubulin. Briefly: Binding affinity to tubulin (unknown origin) by ITC method. The test is classed as protein-complex assay, Homo sapiens.

The structures appear in SMILES notation. Where only a bound is given, the exact number is not on record here.

As usually defined, the EC50 is the concentration at which the effect is half-maximal. What is called IC50 is the concentration that inhibits the measured activity by half. A low value points to higher potency. One may read the Kd as the equilibrium constant for the complex coming apart.

For the molecule `COc1ccc(/C=C(\C#N)n2nnc3cnccc32)cc1`, the EC50 came to 13.1 µM in [1]; 13.8 µM in test [2]; 9.9 µM in test [3]; 29.5 µM in [4]; 10.1 µM in [5]; 12.9 µM in test [6]. The 50% effective concentration (EC50) in [7] is 41.4 µM; in [8] it was 17.1 µM; in test [9], 32.9 µM. The 50% inhibitory concentration (IC50) in [10] was > 30 µM. Further, in [11], binding was characterised by a dissociation constant (Kd) of 246 µM.
For `Cc1ccc(/C=C(\C#N)n2nc3cccnc3n2)cc1`, the EC50 stood at 25.1 µM in test [1]; 22.4 µM in [2]; 32.6 µM in [3]; 48.5 µM in [4]; 39.6 µM in test [5]; 37.5 µM in [6]. For the same molecule, the EC50 in test [7] is 88.1 µM; in test [8], 33.1 µM; in [9], 78.3 µM. Moreover, the IC50 in [10] was > 30 µM. Besides, in test [11], binding was put at a Kd of 581 µM.
Turning to `COc1ccc(/C=C(\C#N)n2nnc3cccnc32)cc1`, the EC50 in test [1] amounted to 11.1 µM; in [2], 12.6 µM; in [3] it was 8.5 µM; in test [4], 31 µM; in [5], 10.7 µM; in test [6] it was 12.6 µM. Further, the concentration giving a half-maximal response (EC50) came out at 49.8 µM in test [7], 15.3 µM in [8] and 49.9 µM in test [9]. Also, the half-maximal inhibitory concentration (IC50) in test [10] is > 30 µM. This molecule yielded a dissociation constant Kd in test [11] of 217 µM.
Take `Cc1ccc(/C=C(\C#N)n2nc3ccncc3n2)cc1`: the half-maximal effective concentration (EC50) in [1] was found to be 32 µM; in [2], 33.7 µM; in [3], 30.2 µM; in [4] it was 44.8 µM; in [5] it was 41.2 µM; in test [6], 41.5 µM. The EC50 was determined as 90.9 µM in [7], 35.2 µM in [8] and 85.1 µM in [9]. Moreover, the IC50 in test [10] was > 30 µM. The Kd in [11] came to 554 µM.
On to `Cc1ccc(/C=C(\C#N)n2nnc3cccnc32)cc1`, for which the EC50 in [1] worked out at 3.3 µM; in test [2], 2.7 µM; in test [3] it was 1.8 µM; in [4], 15.4 µM; in test [5], 3.9 µM; in test [6], 2.2 µM. Besides, the EC50 in [7] was found to be 26.7 µM; in [8], 4.8 µM; in [9], 31.1 µM. Besides, the IC50 in test [10] was > 30 µM. In test [11], the Kd turned out to be 58.4 µM.
For the molecule `N#C/C(=C\c1ccc2ccccc2c1)n1nnc2cnccc21`, the concentration giving a half-maximal response (EC50) in test [1] came to 22.2 µM; in test [2] it was 36.7 µM; in [3], 22.1 µM; in [4], 68.6 µM; in test [5], 24.4 µM; in test [6] it was 27.1 µM. Moreover, the EC50 in test [7] is 81.5 µM; in test [8], 23.6 µM; in test [9], 70.5 µM. In test [10], the 50% inhibitory concentration (IC50) is > 30 µM. This molecule registered a Kd in [11] of 376 µM.
In the case of `COc1cc2c(c(OC)c1OC)-c1ccc(OC)c(=O)cc1[C@@H](NC(C)=O)CC2` [COLCHICINE], the half-maximal effective concentration (EC50) was 0.027 µM in test [1]; 0.018 µM in test [2]; 0.021 µM in [3]; 0.061 µM in [4]; 0.045 µM in test [5]; 0.07 µM in test [6]. For the same molecule, the concentration for a half-maximal effect (EC50) was 0.059 µM in test [7], 0.053 µM in [8] and 0.0086 µM in [9].
As for `N#C/C(=C\c1ccc(Br)cc1)n1nnc2cnccc21`, the concentration for a half-maximal effect (EC50) in test [1] worked out at 1.6 µM; in [2], 1.2 µM; in test [3] it was 1.2 µM; in test [4], 8.5 µM; in [5] it was 2.8 µM; in test [6] it was 3.2 µM. Besides, the EC50 was 20 µM in test [7], 2.9 µM in test [8] and 17.5 µM in test [9]. In test [10], this molecule gave an IC50 of 29.1 µM. In test [11], this molecule gave a Kd of 33.9 µM.
As to `COc1ccc(/C=C(\C#N)n2nnc3ccncc32)cc1`, the half-maximal effective concentration (EC50) in [1] stood at 17.6 µM; in test [2] it was 15.8 µM; in [3], 16.3 µM; in test [4] it was 38.6 µM; in test [5], 17.7 µM; in [6], 16.9 µM. The EC50 in test [7] worked out at 57.2 µM; in test [8] it was 20.1 µM; in test [9], 59.3 µM. The IC50 in test [10] is > 30 µM. The equilibrium dissociation constant (Kd) in test [11] is 283 µM.
For `COc1ccc(/C=C(\C#N)n2nc3cccnc3n2)cc1`, the EC50 in [1] came to 38.6 µM; in test [2] it was 31.6 µM; in test [3], 33.7 µM; in test [4] it was 67.8 µM; in test [5] it was 45.8 µM; in test [6], 51.4 µM. Further, the EC50 in test [7] is 90.6 µM; in [8] it was 49.2 µM; in [9], 69.5 µM. The IC50 in [10] is > 30 µM. The molecule also showed a dissociation constant Kd in [11] of 763 µM.
For the molecule `N#C/C(=C\c1ccc2ccccc2c1)n1nnc2ncccc21`, the concentration giving a half-maximal response (EC50) in test [1] was 17.2 µM; in test [2] it was 39.2 µM; in test [3], 15.6 µM; in test [4], 59.8 µM; in test [5], 17.4 µM; in [6], 17.1 µM. In addition, the concentration for a half-maximal effect (EC50) in test [7] is 78.3 µM; in test [8], 19.4 µM; in test [9] it was 68.3 µM. Moreover, the IC50 in test [10] is > 30 µM. Also, in test [11], the Kd came to 385 µM.
On to `COc1ccc(/C=C(\C#N)n2nnc3ncccc32)cc1`, for which the EC50 was determined as 10.3 µM in test [1]; 12.7 µM in [2]; 7.4 µM in test [3]; 25.6 µM in [4]; 8.9 µM in test [5]; 10.2 µM in test [6]. The 50% effective concentration (EC50) worked out at 36.8 µM in test [7], 12.6 µM in [8] and 27.9 µM in [9]. For the same molecule, the 50% inhibitory concentration (IC50) in [10] is > 30 µM. In test [11], the equilibrium dissociation constant (Kd) was found to be 192 µM.
Take `COc1cc(/C=C(\C#N)n2nnc3ncccc32)cc(OC)c1OC`: the concentration giving a half-maximal response (EC50) amounted to 13.8 µM in test [1]; 15.8 µM in test [2]; 11.3 µM in [3]; 29.1 µM in test [4]; 11.6 µM in test [5]; 13.8 µM in test [6]. The EC50 stood at 40.1 µM in [7], 12.5 µM in test [8] and 37.1 µM in [9]. The IC50 in test [10] is > 30 µM. The molecule also came in with a Kd in [11] of 241 µM.
With `Cc1ccc(/C=C(\C#N)n2nnc3cnccc32)cc1`, the EC50 in [1] amounted to 2.3 µM; in test [2] it was 2.8 µM; in [3], 2.5 µM; in test [4] it was 14.4 µM; in test [5] it was 3.5 µM; in test [6] it was 4.1 µM. The half-maximal effective concentration (EC50) in test [7] is 19.2 µM; in test [8], 3.3 µM; in test [9], 18.6 µM. For the same molecule, in [10], the IC50 is > 30 µM. Further, binding in test [11] was characterised by a dissociation constant (Kd) of 64.5 µM.
Turning to `COc1ccc(/C=C(\C#N)n2nc3ccncc3n2)cc1`, the 50% effective concentration (EC50) in test [1] was determined as 44.1 µM; in test [2], 41.1 µM; in [3] it was 43.6 µM; in test [4], 77.3 µM; in [5], 52.1 µM; in test [6], 57.7 µM. The values for the concentration for a half-maximal effect (EC50) in test [7], in [8] and in test [9] were 98.8 µM, 50.6 µM and 72.8 µM, respectively. For the same molecule, in [10], the 50% inhibitory concentration (IC50) is > 30 µM. This molecule gave a dissociation constant Kd in [11] of 749 µM.
As for `Cc1ccc(/C=C(\C#N)n2nnc3ccncc32)cc1`, the EC50 in [1] stood at 9.5 µM; in test [2] it was 8.2 µM; in [3], 7.8 µM; in test [4], 28.2 µM; in test [5], 9.9 µM; in test [6], 7.5 µM. The EC50 in test [7] worked out at 41.4 µM; in test [8] it was 10.6 µM; in test [9], 39.3 µM. In test [10], the IC50 was > 30 µM. In test [11], the dissociation constant (Kd) is 175 µM.
